Assay results taken from patent US10538498B2, “1,3,4-oxadiazole sulfonamide derivative compounds as histone deacetylase 6 inhibitor, and the pharmaceutical composition comprising the same” (Chong Kun Dang Pharmaceutical Corp., priority 2015, dated 2020).

Biological target: T1, human recombinant HDAC6 (Homo sapiens, UniProt Q9UBN7)
T1 construct: purchased Calbiochem 382180
T1 sequence (Q9UBN7 1-1215): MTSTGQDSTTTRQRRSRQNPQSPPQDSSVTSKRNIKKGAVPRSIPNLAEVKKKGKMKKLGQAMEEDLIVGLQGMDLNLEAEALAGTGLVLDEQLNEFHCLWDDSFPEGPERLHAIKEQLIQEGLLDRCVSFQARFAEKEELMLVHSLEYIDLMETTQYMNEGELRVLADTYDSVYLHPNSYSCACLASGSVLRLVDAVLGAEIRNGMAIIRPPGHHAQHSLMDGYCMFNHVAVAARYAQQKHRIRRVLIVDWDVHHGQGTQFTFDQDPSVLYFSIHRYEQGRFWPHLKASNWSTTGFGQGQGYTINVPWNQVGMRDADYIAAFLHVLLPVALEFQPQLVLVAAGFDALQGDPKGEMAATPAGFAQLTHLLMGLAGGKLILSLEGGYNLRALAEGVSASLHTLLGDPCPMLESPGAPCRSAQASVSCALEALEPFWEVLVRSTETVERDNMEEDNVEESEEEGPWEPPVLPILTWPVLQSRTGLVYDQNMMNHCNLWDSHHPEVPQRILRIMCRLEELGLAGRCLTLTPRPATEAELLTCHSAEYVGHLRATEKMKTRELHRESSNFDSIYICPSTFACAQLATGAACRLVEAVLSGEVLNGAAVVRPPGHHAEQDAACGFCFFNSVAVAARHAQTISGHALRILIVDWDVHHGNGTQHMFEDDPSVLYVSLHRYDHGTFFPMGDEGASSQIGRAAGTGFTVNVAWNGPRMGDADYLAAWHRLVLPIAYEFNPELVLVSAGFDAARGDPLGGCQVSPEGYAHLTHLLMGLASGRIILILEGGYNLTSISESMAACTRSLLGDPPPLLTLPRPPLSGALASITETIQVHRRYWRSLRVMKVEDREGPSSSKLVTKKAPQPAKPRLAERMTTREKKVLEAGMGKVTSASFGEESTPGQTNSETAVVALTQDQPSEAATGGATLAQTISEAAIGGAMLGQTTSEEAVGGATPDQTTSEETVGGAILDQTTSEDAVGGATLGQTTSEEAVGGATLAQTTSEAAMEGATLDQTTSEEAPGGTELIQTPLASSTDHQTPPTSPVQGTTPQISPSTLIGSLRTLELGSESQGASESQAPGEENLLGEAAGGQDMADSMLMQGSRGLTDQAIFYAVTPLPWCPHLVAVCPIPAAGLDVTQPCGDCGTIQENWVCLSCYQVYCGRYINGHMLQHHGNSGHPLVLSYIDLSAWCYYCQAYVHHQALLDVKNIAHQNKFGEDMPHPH
Assay: HDAC6 enzyme activity inhibition assay (HDAC Fluorimetric Drug Discovery Kit)
Assay type: biochemical
Details: for HDAC6 selectivity (fold): HDAC1 vs HDAC6; for IC50: same protocol as the HDAC1 enzyme activity test
How it was run: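 IC50s derived from fluorescence (Ex 360, Em 460) read after a 30-min developer step. Beforehand, compounds in 5-fold dilution series reacted 60 min at 30° C with 0.3 μg human recombinant enzyme and 10 μM Fluor de Lys-SIRT1 substrate.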

Structure (SMILES)	HDAC6 selectivity (fold)	IC50 [nM]
O=S(=O)(CCCN1CCOCC1)N(Cc1ccc(-c2nnc(C(F)F)o2)cc1)c1ccc(F)c(Cl)c1 [Compound 11723, N-(3-chloro-4-fluorophenyl)-N-(4-(5-(difluoromethyl)-1,3,4-oxadiazol-2-yl)benzyl)-3-morpholinopropane-1-sulfonamide]	1272	78.6
O=S(=O)(C1CCN([C@H]2CC[C@H](F)CC2)CC1)N(Cc1ccc(-c2nnc(C(F)F)o2)cc1)c1cccc(Cl)c1 [Compound 11725, N-(3-chlorophenyl)-N-(4-(5-(difluoromethyl)-1,3,4-oxadiazol-2-yl)benzyl)-1-((1r,4r)-4-fluorocyclohexyl)piperidine-4-sulfonamide]	412	243
O=S(=O)(C1CCN([C@H]2CC[C@@H](F)CC2)CC1)N(Cc1ccc(-c2nnc(C(F)F)o2)cc1)c1cccc(Cl)c1 [Compound 11726, N-(3-chlorophenyl)-N-(4-(5-(difluoromethyl)-1,3,4-oxadiazol-2-yl)benzyl)-1-((1s,4s)-4-fluorocyclohexyl)piperidine-4-sulfonamide]	782	128
CN1Cc2ccc(N(Cc3ccc(-c4nnc(C(F)F)o4)cc3)S(C)(=O)=O)cc2C1 [Compound 11729, N-(4-(5-(difluoromethyl)-1,3,4-oxadiazol-2-yl)benzyl)-N-(2-methylisoindolin-5-yl)methanesulfonamide]	56	1760
CC(C)N1Cc2ccc(N(Cc3ccc(-c4nnc(C(F)F)o4)cc3)S(C)(=O)=O)cc2C1 [Compound 11730, N-(4-(5-(difluoromethyl)-1,3,4-oxadiazol-2-yl)benzyl)-N-(2-isopropylisoindolin-5-yl)methanesulfonamide]	39	2530
CS(=O)(=O)N(Cc1ccc(-c2nnc(C(F)F)o2)cc1)c1ccc2c(c1)CN(C1COC1)C2 [Compound 11731, N-(4-(5-(difluoromethyl)-1,3,4-oxadiazol-2-yl)benzyl)-N-(2-(oxetan-3-yl)isoindolin-5-yl)methanesulfonamide]	57	1750
CC(=O)N1Cc2ccc(N(Cc3ccc(-c4nnc(C(F)F)o4)cc3)S(C)(=O)=O)cc2C1 [Compound 11732, N-(2-acetylisoindolin-5-yl)-N-(4-(5-(difluoromethyl)-1,3,4-oxadiazol-2-yl)benzyl)methanesulfonamide]	184	542
CN1Cc2ccc(N(Cc3ccc(-c4nnc(C(F)F)o4)cn3)S(C)(=O)=O)cc2C1 [Compound 11733, N-((5-(5-(difluoromethyl)-1,3,4-oxadiazol-2-yl)pyridin-2-yl)methyl)-N-(2-methylisoindolin-5-yl)methanesulfonamide]	203	490
CC(C)N1Cc2ccc(N(Cc3ccc(-c4nnc(C(F)F)o4)cn3)S(C)(=O)=O)cc2C1 [Compound 11734, N-((5-(5-(difluoromethyl)-1,3,4-oxadiazol-2-yl)pyridin-2-yl)methyl)-N-(2-isopropylisoindolin-5-yl)methanesulfonamide]	132	755
CS(=O)(=O)N(Cc1ccc(-c2nnc(C(F)F)o2)cn1)c1ccc2c(c1)CN(C1COC1)C2 [Compound 11735, N-((5-(5-(difluoromethyl)-1,3,4-oxadiazol-2-yl)pyridin-2-yl)methyl)-N-(2-(oxetan-3-yl)isoindolin-5-yl)methanesulfonamide]	123	809
CC(=O)N1Cc2ccc(N(Cc3ccc(-c4nnc(C(F)F)o4)cn3)S(C)(=O)=O)cc2C1 [Compound 11736, N-(2-acetylisoindolin-5-yl)-N-((5-(5-(difluoromethyl)-1,3,4-oxadiazol-2-yl)pyridin-2-yl)methyl)methanesulfonamide]	216	461
CN1CCCN(CCS(=O)(=O)N(Cc2ccc(-c3nnc(C(F)F)o3)cc2)c2ccccc2)CC1 [Compound 11737, N-(4-(5-(difluoromethyl)-1,3,4-oxadiazol-2-yl)benzyl)-2-(4-methyl-1,4-diazepan-1-yl)-N-phenylethanesulfonamide]	1440	69.4
O=S(=O)(CCN1CCC1)N(Cc1ccc(-c2nnc(C(F)F)o2)cc1)c1ccccc1 [Compound 11738, 2-(azetidin-1-yl)-N-(4-(5-(difluoromethyl)-1,3,4-oxadiazol-2-yl)benzyl)-N-phenylethanesulfonamide]	1466	68.2
CS(=O)(=O)N(Cc1ccc(-c2nnc(C(F)F)o2)cc1)c1nccs1 [Compound 11739, N-(4-(5-(difluoromethyl)-1,3,4-oxadiazol-2-yl)benzyl)-N-(thiazol-2-yl)methanesulfonamide]	148	675
CS(=O)(=O)N(Cc1ccc(-c2nnc(C(F)F)o2)cc1)c1nc2ccccc2s1 [Compound 11740, N-(benzo[d]thiazol-2-yl)-N-(4-(5-(difluoromethyl)-1,3,4-oxadiazol-2-yl)benzyl)methanesulfonamide]	188	531
CS(=O)(=O)N(Cc1ccc(-c2nnc(C(F)F)o2)cc1)c1ncco1 [Compound 11741, N-(4-(5-(difluoromethyl)-1,3,4-oxadiazol-2-yl)benzyl)-N-(oxazol-2-yl)methanesulfonamide]	57	1740
CC(C)n1ncc2ccc(N(Cc3ccc(-c4nnc(C(F)F)o4)cc3)S(C)(=O)=O)cc21 [Compound 11742, N-(4-(5-(difluoromethyl)-1,3,4-oxadiazol-2-yl)benzyl)-N-(1-isopropyl-1H-indazol-6-yl)methanesulfonamide]	418	239
CCn1ncc2ccc(N(Cc3ccc(-c4nnc(C(F)F)o4)cc3)S(C)(=O)=O)cc21 [Compound 11743, N-(4-(5-(difluoromethyl)-1,3,4-oxadiazol-2-yl)benzyl)-N-(1-ethyl-1H-indazol-6-yl)methanesulfonamide]	1466	68.2
CC(C)c1nc2ccc(N(Cc3ccc(-c4nnc(C(F)F)o4)cc3)S(C)(=O)=O)cc2s1 [Compound 11744, N-(4-(5-(difluoromethyl)-1,3,4-oxadiazol-2-yl)benzyl)-N-(2-isopropylbenzo[d]thiazol-6-yl)methanesulfonamide]	188	531
Cn1c(=O)n(C)c2cc(N(Cc3ccc(-c4nnc(C(F)F)o4)cc3)S(C)(=O)=O)ccc21 [Compound 11745, N-(4-(5-(difluoromethyl)-1,3,4-oxadiazol-2-yl)benzyl)-N-(1,3-dimethyl-2-oxo-2,3-dihydro-1H-benzo[d]imidazol-5-yl) methanesulfonamide]	432	231
Cc1nn(C)c2ccc(N(Cc3ccc(-c4nnc(C(F)F)o4)cc3)S(C)(=O)=O)cc12 [Compound 11746, N-(4-(5-(difluoromethyl)-1,3,4-oxadiazol-2-yl)benzyl)-N-(1,3-dimethyl-1H-indazol-5-yl)methanesulfonamide]	784	127
CS(=O)(=O)N(Cc1ccc(-c2nnc(C(F)F)o2)cc1F)c1ccc2c(c1)CCC2 [Compound 11747, N-(4-(5-(difluoromethyl)-1,3,4-oxadiazol-2-yl)-2-fluorobenzyl)-N-(2,3-dihydro-1H-inden-5-yl)methanesulfonamide]	1050	95.2
CS(=O)(=O)N(Cc1ccc(-c2nnc(C(F)F)o2)cc1F)[C@@H]1CCc2ccccc21 [Compound 11748, (R)—N-(4-(5-(difluoromethyl)-1,3,4-oxadiazol-2-yl)-2-fluorobenzyl)-N-(2,3-dihydro-1H-inden-1-yl)methanesulfonamide]	230	433
